Data from ChEMBL document CHEMBL4052785, “Discovery of (R)-5-(benzo[d][1,3]dioxol-5-yl)-7-((1-(vinylsulfonyl)pyrrolidin-2-yl)methyl)-7H-pyrrolo[2,3-d]pyrimidin-4-amine (B6) as a potent Bmx inhibitor for the treatment of NSCLC” (Bioorg Med Chem Lett, 2017).

Tests used:
[1] = biological target: Cytoplasmic tyrosine-protein kinase BMX (Homo sapiens, UniProt P51813); assay: Inhibition of recombinant human full length N-terminal His6-tagged BMX expressed in Sf21 cells preincubated for 5 mins followed by biotinyl-beta Abeta Abeta AEEEPQYEEIPIYLELLP substrate addition after 30 to 60 mins in presence of ATP by fluorescence assay
Homo sapiens [2] = species on record: Homo sapiens; assay: Selectivity ratio of IC50 for recombinant human full length N-terminal His6-tagged NEK2 to IC50 for human full length N-terminal His6-tagged BMX
Homo sapiens [3] = species on record: Homo sapiens; assay: Selectivity ratio of IC50 for RSK1 (unknown origin) to IC50 for human full length N-terminal His6-tagged BMX
Homo sapiens [4] = species on record: Homo sapiens; assay: Selectivity ratio of IC50 for recombinant human full length N-terminal His6-tagged BRK to IC50 for human full length N-terminal His6-tagged BMX
[5] = biological target: Tyrosine-protein kinase ITK/TSK (Homo sapiens, UniProt Q08881); assay: Inhibition of recombinant human N-terminal His6-tagged ITK (352 to 617 residues) expressed in baculovirus Sf21 insect cells preincubated for 5 mins followed by Ulight-TK peptide substrate addition after 30 to 60 mins in presence of ATP by fluorescence assay
Homo sapiens [6] = species on record: Homo sapiens; assay: Selectivity ratio of IC50 for recombinant human N-terminal GST-tagged MKK7beta (2 to end residues) to IC50 for human full length N-terminal His6-tagged BMX
Homo sapiens [7] = species on record: Homo sapiens; assay: Selectivity ratio of IC50 for recombinant human full length N-terminal His6-tagged SRC to IC50 for human full length N-terminal His6-tagged BMX
NCI-H1975 = assay: Antitumor activity against human NCI-H1975 cells xenografted in nude mouse assessed as tumor growth inhibition at 25 mg/kg administered via oral gavage qd measured every 2 days up to 18 days relative to control; assay type: functional; conditions: read-out: TGI
[8] = biological target: Tyrosine-protein kinase FRK (Homo sapiens, UniProt P42685); assay: Inhibition of recombinant human N-terminal His6-tagged FRK (218 to end residues) expressed in baculovirus Sf21 insect cells preincubated for 5 mins followed by substrate addition after 30 to 60 mins in presence of ATP by fluorescence assay
Homo sapiens [9] = species on record: Homo sapiens; assay: Selectivity ratio of IC50 for recombinant human N-terminal His6-tagged TEC (174 to end residues) to IC50 for human full length N-terminal His6-tagged BMX
[10] = biological target: Tyrosine-protein kinase ABL1 (Homo sapiens, UniProt P00519); assay: Inhibition of recombinant human N-terminal His6-tagged ABL (27 to end residues) expressed in baculovirus Sf21 insect cells preincubated for 5 mins followed by substrate addition after 30 to 60 mins in presence of ATP by fluorescence assay
Homo sapiens [11] = species on record: Homo sapiens; assay: Selectivity ratio of IC50 for recombinant human N-terminal His6-tagged TXK (256 to end residues) to IC50 for human full length N-terminal His6-tagged BMX
Homo sapiens [12] = species on record: Homo sapiens; assay: Selectivity ratio of IC50 for BLK (unknown origin) to IC50 for human full length N-terminal His6-tagged BMX
[13] = biological target: Proto-oncogene tyrosine-protein kinase receptor Ret (Homo sapiens, UniProt P07949); assay: Inhibition of recombinant human N-terminal GST-tagged RET (658 to end residues) expressed in baculovirus Sf21 insect cells preincubated for 5 mins followed by biotinyl-beta Abeta Abeta AAEEEEYFELVAKKK substrate addition after 30 to 60 mins in presence of ATP by fluorescence assay
Homo sapiens [14] = species on record: Homo sapiens; assay: Selectivity ratio of IC50 for recombinant human N-terminal His6-tagged PLK1 to IC50 for human full length N-terminal His6-tagged BMX
Homo sapiens [15] = species on record: Homo sapiens; assay: Selectivity ratio of IC50 for human JAK1 to IC50 for human full length N-terminal His6-tagged BMX
[16] = biological target: Receptor-interacting serine/threonine-protein kinase 2 (Homo sapiens, UniProt O43353); assay: Inhibition of recombinant human N-terminal His6-tagged RIPK2 (1 to 299 residues) expressed in baculovirus Sf21 insect cells preincubated for 5 mins followed by substrate addition after 30 to 60 mins in presence of ATP by fluorescence assay
Sequence of Receptor-interacting serine/threonine-protein kinase 2 (O43353 whole entry, the tested form may be a part): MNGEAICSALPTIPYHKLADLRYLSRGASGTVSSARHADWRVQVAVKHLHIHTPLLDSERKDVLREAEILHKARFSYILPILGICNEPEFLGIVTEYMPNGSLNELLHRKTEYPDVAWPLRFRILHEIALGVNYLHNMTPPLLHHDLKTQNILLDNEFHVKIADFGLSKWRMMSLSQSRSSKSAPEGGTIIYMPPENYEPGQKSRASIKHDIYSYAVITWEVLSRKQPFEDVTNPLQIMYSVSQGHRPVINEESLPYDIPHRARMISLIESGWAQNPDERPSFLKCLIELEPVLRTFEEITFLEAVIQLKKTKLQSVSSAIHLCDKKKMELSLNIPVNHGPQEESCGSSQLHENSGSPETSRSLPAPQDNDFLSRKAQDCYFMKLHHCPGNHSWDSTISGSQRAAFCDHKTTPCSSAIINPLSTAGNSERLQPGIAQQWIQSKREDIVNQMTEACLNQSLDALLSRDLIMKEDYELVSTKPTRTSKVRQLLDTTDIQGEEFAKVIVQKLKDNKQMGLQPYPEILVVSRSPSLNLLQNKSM

Sequence of Tyrosine-protein kinase ITK/TSK (Q08881 whole entry, the tested form may be a part): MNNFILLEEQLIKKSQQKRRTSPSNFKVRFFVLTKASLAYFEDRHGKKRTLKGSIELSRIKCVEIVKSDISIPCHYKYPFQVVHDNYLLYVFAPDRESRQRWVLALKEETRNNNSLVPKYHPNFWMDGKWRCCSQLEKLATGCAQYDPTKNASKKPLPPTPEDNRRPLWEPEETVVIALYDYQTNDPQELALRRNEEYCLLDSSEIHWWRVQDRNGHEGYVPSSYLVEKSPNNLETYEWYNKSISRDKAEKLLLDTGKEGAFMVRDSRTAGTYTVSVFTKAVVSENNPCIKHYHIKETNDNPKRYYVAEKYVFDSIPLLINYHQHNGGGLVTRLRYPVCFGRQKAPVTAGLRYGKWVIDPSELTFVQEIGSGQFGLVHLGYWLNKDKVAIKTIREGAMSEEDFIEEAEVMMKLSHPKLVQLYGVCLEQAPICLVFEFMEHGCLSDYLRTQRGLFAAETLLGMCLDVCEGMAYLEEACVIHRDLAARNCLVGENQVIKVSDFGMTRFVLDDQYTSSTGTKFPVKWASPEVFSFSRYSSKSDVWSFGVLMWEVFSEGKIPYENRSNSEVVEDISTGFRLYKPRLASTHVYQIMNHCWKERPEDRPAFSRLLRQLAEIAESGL
Sequence of Tyrosine-protein kinase ABL1 (P00519 whole entry): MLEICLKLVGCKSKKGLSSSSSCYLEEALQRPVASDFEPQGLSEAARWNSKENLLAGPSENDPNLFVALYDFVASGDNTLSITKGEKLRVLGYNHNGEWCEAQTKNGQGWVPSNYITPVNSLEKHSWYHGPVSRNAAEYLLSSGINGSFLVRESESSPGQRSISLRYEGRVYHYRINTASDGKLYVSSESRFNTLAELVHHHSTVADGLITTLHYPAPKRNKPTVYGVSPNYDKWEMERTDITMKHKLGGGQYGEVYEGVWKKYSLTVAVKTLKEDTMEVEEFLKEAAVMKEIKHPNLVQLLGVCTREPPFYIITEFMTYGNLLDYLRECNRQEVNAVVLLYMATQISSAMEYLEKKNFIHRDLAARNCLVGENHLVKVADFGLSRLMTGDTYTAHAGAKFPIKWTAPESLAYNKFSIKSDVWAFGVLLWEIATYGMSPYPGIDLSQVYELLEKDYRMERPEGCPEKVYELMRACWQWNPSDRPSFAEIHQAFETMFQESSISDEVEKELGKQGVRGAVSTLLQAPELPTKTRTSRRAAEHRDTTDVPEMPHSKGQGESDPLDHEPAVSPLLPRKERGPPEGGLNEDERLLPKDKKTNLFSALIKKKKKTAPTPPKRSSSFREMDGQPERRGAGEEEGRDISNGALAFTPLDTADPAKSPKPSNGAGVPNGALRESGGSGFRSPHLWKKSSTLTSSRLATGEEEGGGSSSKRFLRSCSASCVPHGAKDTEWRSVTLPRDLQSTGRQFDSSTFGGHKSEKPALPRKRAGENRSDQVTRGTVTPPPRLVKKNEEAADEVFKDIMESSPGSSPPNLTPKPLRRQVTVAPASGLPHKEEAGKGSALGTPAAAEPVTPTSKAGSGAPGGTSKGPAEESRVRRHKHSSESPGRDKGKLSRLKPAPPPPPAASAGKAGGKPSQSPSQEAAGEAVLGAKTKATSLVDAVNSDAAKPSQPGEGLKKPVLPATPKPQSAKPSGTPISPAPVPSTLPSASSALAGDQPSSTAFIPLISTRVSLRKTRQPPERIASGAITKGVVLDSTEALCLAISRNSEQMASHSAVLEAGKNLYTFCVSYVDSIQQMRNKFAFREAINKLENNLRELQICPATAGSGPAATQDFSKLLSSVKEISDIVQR
Sequence of Tyrosine-protein kinase FRK (P42685 whole entry): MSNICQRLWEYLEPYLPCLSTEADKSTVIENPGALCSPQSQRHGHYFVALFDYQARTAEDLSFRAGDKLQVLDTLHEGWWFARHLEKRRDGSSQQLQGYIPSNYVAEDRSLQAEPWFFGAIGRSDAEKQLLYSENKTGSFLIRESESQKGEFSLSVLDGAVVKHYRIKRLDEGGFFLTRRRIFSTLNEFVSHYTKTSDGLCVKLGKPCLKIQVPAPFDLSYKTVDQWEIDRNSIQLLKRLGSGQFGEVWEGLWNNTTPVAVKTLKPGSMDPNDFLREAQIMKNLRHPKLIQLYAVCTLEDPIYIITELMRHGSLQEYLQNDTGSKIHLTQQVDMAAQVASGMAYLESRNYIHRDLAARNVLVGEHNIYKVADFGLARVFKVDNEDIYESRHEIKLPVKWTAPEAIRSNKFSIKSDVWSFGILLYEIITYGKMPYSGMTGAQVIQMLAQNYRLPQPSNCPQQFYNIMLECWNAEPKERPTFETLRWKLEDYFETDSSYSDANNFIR
Sequence of Proto-oncogene tyrosine-protein kinase receptor Ret (P07949 whole entry): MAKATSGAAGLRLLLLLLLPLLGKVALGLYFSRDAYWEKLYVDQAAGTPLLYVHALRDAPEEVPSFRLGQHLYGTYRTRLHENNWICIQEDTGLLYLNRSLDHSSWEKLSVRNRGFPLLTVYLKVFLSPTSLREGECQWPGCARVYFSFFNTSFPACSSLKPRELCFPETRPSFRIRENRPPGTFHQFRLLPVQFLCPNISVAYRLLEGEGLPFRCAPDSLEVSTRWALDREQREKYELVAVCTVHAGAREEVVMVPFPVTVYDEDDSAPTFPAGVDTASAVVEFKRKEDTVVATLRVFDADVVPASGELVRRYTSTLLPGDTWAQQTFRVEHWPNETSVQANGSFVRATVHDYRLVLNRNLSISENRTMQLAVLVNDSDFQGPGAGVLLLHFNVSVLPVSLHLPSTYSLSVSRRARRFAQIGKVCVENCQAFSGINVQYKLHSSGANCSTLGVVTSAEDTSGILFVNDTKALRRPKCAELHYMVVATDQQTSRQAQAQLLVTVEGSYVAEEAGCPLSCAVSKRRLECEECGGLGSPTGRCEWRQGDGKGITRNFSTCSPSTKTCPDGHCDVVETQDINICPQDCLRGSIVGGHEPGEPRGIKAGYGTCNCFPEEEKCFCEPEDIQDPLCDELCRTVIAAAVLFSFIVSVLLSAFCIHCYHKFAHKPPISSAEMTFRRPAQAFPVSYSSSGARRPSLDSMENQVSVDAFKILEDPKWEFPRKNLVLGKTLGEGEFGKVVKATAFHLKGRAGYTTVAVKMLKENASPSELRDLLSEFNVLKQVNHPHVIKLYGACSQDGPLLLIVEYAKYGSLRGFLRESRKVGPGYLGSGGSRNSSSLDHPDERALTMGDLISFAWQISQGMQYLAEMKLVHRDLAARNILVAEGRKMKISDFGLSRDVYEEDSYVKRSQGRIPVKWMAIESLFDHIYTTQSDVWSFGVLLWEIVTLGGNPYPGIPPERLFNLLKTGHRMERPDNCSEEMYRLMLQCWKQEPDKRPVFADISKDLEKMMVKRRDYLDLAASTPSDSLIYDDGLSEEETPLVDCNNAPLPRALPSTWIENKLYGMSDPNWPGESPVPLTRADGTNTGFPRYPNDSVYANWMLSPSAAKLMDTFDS
Sequence of Cytoplasmic tyrosine-protein kinase BMX (P51813 whole entry): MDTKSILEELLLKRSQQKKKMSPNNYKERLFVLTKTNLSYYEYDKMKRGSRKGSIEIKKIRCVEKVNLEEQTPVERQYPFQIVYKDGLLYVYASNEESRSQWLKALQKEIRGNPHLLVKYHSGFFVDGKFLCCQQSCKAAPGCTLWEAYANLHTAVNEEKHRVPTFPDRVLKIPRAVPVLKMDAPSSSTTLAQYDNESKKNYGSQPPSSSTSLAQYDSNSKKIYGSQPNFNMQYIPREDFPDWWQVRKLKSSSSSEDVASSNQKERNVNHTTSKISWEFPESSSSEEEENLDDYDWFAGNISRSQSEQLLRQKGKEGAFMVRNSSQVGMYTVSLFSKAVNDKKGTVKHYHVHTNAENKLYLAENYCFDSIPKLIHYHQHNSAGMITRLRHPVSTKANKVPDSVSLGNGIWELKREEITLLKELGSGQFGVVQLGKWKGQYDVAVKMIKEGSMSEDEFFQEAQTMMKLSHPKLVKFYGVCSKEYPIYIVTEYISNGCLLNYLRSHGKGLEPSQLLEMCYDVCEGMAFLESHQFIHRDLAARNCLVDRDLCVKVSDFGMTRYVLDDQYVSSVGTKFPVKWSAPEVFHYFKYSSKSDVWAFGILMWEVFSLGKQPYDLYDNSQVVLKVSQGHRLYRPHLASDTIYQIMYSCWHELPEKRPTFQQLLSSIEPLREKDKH

- IC50 [1]: 35.7 nM
- Ratio IC50 (Homo sapiens [2]): > 280
- Ratio IC50 (Homo sapiens [3]): > 280
- Ratio IC50 (Homo sapiens [4]): 5.9
- IC50 [5]: 5650 nM
- Ratio IC50 (Homo sapiens [6]): 5.3
- Ratio IC50 (Homo sapiens [7]): 5.5
- IC50 [8]: 510 nM
- Ratio IC50 (Homo sapiens [9]): 3.1
- IC50 [10]: 802 nM
- Ratio IC50 (Homo sapiens [11]): 25.7
- Ratio IC50 (Homo sapiens [12]): 2.1
- IC50 [13]: 89.5 nM
- Ratio IC50 (Homo sapiens [14]): > 280
- Ratio IC50 (Homo sapiens [15]): > 280
- IC50 [16]: 403 nM
SMILES: C=CS(=O)(=O)N1CCC[C@@H]1Cn1cc(-c2ccc3c(c2)OCO3)c2c(N)ncnc21
- inhibition in vivo at 25 mg/kg (NCI-H1975): 73.9%
